This assay deals with T1, ferroportin (Fpn) (Mus musculus, UniProt Q9JHI9).
T1 construct: host or cells: J774 mouse macrophage cell line, Fe(III)-NTA induced
T1 sequence (Q9JHI9 1-570): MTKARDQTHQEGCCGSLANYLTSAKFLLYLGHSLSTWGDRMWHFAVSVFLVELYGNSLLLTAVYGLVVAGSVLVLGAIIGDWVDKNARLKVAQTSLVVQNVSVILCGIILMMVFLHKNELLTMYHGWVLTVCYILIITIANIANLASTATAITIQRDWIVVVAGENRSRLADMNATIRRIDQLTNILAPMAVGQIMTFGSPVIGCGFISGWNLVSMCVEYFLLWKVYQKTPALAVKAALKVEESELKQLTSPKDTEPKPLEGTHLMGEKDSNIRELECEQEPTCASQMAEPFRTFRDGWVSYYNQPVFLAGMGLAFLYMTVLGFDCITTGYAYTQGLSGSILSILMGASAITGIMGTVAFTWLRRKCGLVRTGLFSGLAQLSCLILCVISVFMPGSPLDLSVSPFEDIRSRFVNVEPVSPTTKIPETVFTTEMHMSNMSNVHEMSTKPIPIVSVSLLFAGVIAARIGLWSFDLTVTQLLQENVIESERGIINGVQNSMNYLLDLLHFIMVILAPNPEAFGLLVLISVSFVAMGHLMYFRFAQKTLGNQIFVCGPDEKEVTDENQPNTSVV
Description: Hepcidin Internalization Assay (J774). It is filed as cell-based. Particulars: average of multiple measurements; inhibition of TMR-hepcidin (25 nM) internalization into J774 cells; read-out: J774 IC50. The text has this: This cellular assay allows quantification of the binding of hepcidin to ferroportin (Fpn) through microscopic detection of internalization of a fluorescently labeled hepcidin into J774 cells. […] Binding of hepcidin to Fpn triggers internalization and degradation of both hepcidin and Fpn. However, the TMR (6-carboxytetramethylrhodamine) fluorophore attached to hepcidin remains associated with the cell after degradation of the hepcidin peptide backbone. Therefore, microscopic detection of ceH associated TMR fluorescence is a measure of hepcidin binding to Fpn and internalization of hepcidin and Fpn. If TMR-hepcidin is prevented from binding to Fpn, cellular TMR fluorescence remains low (Dürrenberger et al, 2013). The effect of small molecular weight Fpn inhibitor compounds in this assay was evaluated in vitro as described below.
J774 cells, harvested from ca. 80% confluent cultures, were plated at 8×10^5 cells/ml in complete medium (DMEM, 10% FBS, 1% Penicillin-Streptomycin) containing 200 μM Fe(III)NTA (nitrilotriacetic acid), 100 μl per well of 96 well MicroClear plates (Greiner; Cat. 655090) and grown at 37° C. with 5% CO2. After overnight incubation, cells were washed 3 times with pre-warmed DMEM w/o phenol red, 30 μl/well of DMEM w/o phenol red was added after the final wash and 10 μl/well of dilution series of test compounds were added in triplicates. […] Cells were incubated in a total volume of 50 μl at 37° C. with 5% CO2 for 2 hours, then Hoechst 33342 dye was added to a final concentration of 0.5 μg/ml to stain nuclei and further incubated for 10 min. at 37° C. with 5% CO2. Cells were washed 3 times with PBS and fixed in 100 μl of 4% paraformaldehyde in PBS for 15 min. at room temperature. After removal of the paraformaldehyde solution, cells were washed 3 times with PBS leaving 100 μl per well and the plates were sealed with foil plate seal. TMR (530-550 nm excitation/575-625 nm emission/400 ms exposure time) and Hoechst 33342 (360-370 nm excitation/420-460 nm emission/10 ms exposure time) fluorescence images were acquired using a ScanR plate imager (Olympus) with a 20× high NA objective. Four pictures were acquired per well and fluorescence channel covering ca. 1500 cells per well. The acquired image data was analysed with the ScanR image analysis software. Image analysis included detection of nuclei (Hoechst 33342 fluorescence), identification of cell-associated regions, application of a virtual channel and thresholding for rolling-ball-type background reduction, followed by application of the Sum(Mean) algorithm to measure the TMR fluorescence associated with cells as a quantitative measure for internalized TMR-hepcidin. IC50 values were calculated with the Sum(Mean) raw data using “log(inhibitor) vs. response” curve fitting of Prism 5 software (GraphPad Software Inc., version 5.02).
For the molecule `O=C(NCc1ccccc1)c1csc(CCNCc2nccs2)n1` [Example 3], the half-maximal inhibitory concentration (IC50) (as a rule, the concentration needed to halve the response being measured) was 16.6 µM.

In the case of `CC(=O)N(CCc1nc(C(=O)NCc2ccccc2)cs1)Cc1nccn1C` [Example 4], the half-inhibitory concentration (IC50) is 15.4 µM.

Take `O=C(NCc1ccccc1)c1csc(CCNCc2n[nH]c3ccccc23)n1` [Example 5]: the 50% inhibitory concentration (IC50) turned out to be 10.4 µM.

As for `O=C(NCc1ccccc1)c1csc(CCNC(=O)c2nc3ccccc3[nH]2)n1` [Example 7], the IC50 amounted to 14.2 µM.

`O=C(NCc1ccccc1)c1csc(CCNC(=O)c2ncc[nH]2)n1` [Example 8]: the IC50 was 42.9 µM.

For `O=C(c1csc(CCNCc2nc3ccccc3[nH]2)n1)N1CCOCC1` [Example 18], the concentration for half-maximal inhibition (IC50) is 8.7 µM.

As for `O=C(NCc1ccccn1)c1cnn(CCNCCc2nc3ccccc3[nH]2)c1` [Example 109], the 50% inhibitory concentration (IC50) turned out to be 0.076 µM.

Take `O=C(Cc1nc2ccccc2[nH]1)NCCc1nc(C(=O)NCc2ncccc2F)cs1` [Example 113]: the IC50 was greater than 25 µM.

Consider `O=C(NCc1ncccc1F)c1csc(CCNCc2nc3ccc(F)cc3[nH]2)n1` [Example 114], for which the IC50 was found to be 0.118 µM.

Consider `O=C(NCc1ncccc1F)c1csc(CCNCc2nc3ccccc3o2)n1` [Example 115], for which the IC50 is greater than 25 µM.

Turning to `O=C(NCc1ncc(F)cc1F)c1csc(CCNCCc2nc3cc(F)ccc3[nH]2)n1` [Example 123], the IC50 came to 0.17 µM.

Consider `O=C(NCc1ncccn1)c1csc(CCNCCc2nc3ccccc3[nH]2)n1` [Example 129], for which the IC50 worked out at 0.353 µM.

For the molecule `O=C(NC1CCc2cccnc21)c1cnn(CCNCCc2nc3ccccc3[nH]2)c1` (centres unmarked) [Example 131], the IC50 amounted to 0.09 µM.

Turning to `Cc1nn(CCNCc2nc3ccccc3[nH]2)c(C)c1C(=O)NCc1ncccc1F` [Example 142], the IC50 is 21.6 µM.

Regarding `O=C(NCc1ncccc1F)c1cnn(CCNCc2nc3ccccc3[nH]2)c1` [Example 145], the IC50 turned out to be 0.385 µM.

With `O=C(NCc1ncccc1F)c1csc(CCN(CCc2nc3ccccc3[nH]2)CC2CC2)n1` [Example 148], the IC50 stood at 2.08 µM.

For the molecule `Cc1cnc(CNC(=O)c2csc(CCNCCc3nc4ccccc4[nH]3)n2)nc1` [Example 155], the IC50 came to 0.347 µM.

For `O=C(NCc1ncccc1F)c1cn(CCNCc2nc3ccccc3[nH]2)nc1C(F)(F)F` [Example 156], the IC50 was found to be 2.46 µM.

In the case of `CCCCN(CCc1nc2ccccc2[nH]1)CCc1nc(C(=O)NCc2ncccc2F)cs1` [Example 157], the IC50 amounted to 0.717 µM.

Turning to `O=C(NCc1ccccn1)c1nc(CCNCc2nc3ccccc3[nH]2)sc1Cl` [Example 160], the IC50 came out at 0.256 µM.

On to `O=C(NCc1ncccc1F)c1cn(CCNCCc2nc3ccccc3[nH]2)nc1C(F)(F)F` [Example 162], for which the half-maximal inhibitory concentration (IC50) was found to be 0.297 µM.

Consider `NCCCN(CCc1nc2ccccc2[nH]1)CCc1nc(C(=O)NCc2ncccc2F)cs1` [Example 163], for which the IC50 is 0.828 µM.

As to `Cc1sc(CCNCc2nc3ccccc3[nH]2)nc1C(=O)NCc1ncccc1F` [Example 164], the IC50 worked out at 0.343 µM.

`Cc1sc(CCNCCc2nc3ccccc3[nH]2)nc1C(=O)NCc1ncccc1F` [Example 165]: the concentration for half-maximal inhibition (IC50) is 0.1 µM.

Turning to `O=C(NCc1ncccc1Cl)c1coc(CCNCCc2nc3ccccc3[nH]2)n1` [Example 173], the IC50 came out at 0.006 µM.

Consider `Cc1ccc(CNC(=O)c2csc(CCNCCc3nc4ccccc4[nH]3)n2)nn1` [Example 174], for which the concentration for half-maximal inhibition (IC50) came out at 0.141 µM.

Regarding `O=C(NCc1ncccn1)c1nc(CCNCc2nc3ccccc3[nH]2)sc1Cl` [Example 175], the half-inhibitory concentration (IC50) worked out at 1.02 µM.

For `O=C(NCc1ncccc1F)c1nc(CCNCc2nc3ccccc3[nH]2)sc1C(F)(F)F` [Example 176], the IC50 turned out to be 0.957 µM.

In the case of `Cc1cnc(CNC(=O)c2nc(CCNCCc3nc4ccccc4[nH]3)sc2Cl)nc1` [Example 182], the IC50 came to 0.989 µM.

With `O=C(NCc1cccnn1)c1nc(CCNCCc2nc3ccccc3[nH]2)sc1Cl` [Example 183], the IC50 was found to be 0.131 µM.

Turning to `O=C(NCc1ccccn1)c1nc(CCNCCc2nc3ccccc3[nH]2)sc1Cl` [Example 184], the IC50 worked out at 0.063 µM.

As to `O=C(NCc1ncccc1F)c1nc(CCNCCc2nc3ccccc3[nH]2)sc1C(F)(F)F` [Example 186], the IC50 was 0.3 µM.

In the case of `Cc1sc(CCNCCc2nc3ccccc3[nH]2)nc1C(=O)NCc1ncccn1` [Example 188], the IC50 worked out at 1.16 µM.

Turning to `O=C(NCc1ccccn1)c1nc(CCN2CCc3nc4ccccc4n3C2)sc1Cl` [Example 189], the IC50 came out at 0.06 µM.

Take `O=C(NC1CCc2cccnc21)c1cnn(C2CN(CCc3nc4ccccc4[nH]3)C2)c1` (centres unmarked) [Example 191]: the IC50 was found to be 0.33 µM.

Regarding `O=C(NCc1ncccc1Cl)c1csc(C2CN(CCc3nc4ccccc4[nH]3)C2)n1` [Example 195], the IC50 was found to be 0.21 µM.

As to `O=C(NCc1ncccc1F)c1cnn(C2CCN(CCc3nc4ccccc4[nH]3)CC2)c1` [Example 198], the IC50 came out at 27.1 µM.

As for `CC(C)(CNCCc1nc(C(=O)NCc2ncccc2F)cs1)c1nc2ccccc2[nH]1` [Example 199], the IC50 was found to be 0.78 µM.

Turning to `O=C(NCc1ncccc1F)c1nc(CNCCc2nc3ccccc3[nH]2)cs1` [Example 205], the IC50 stood at 0.37 µM.

`O=C(NCc1ncccc1F)c1coc(CNCCc2nc3ccccc3[nH]2)n1` [Example 206]: the IC50 came out at 0.18 µM.

On to `O=C(NCc1ncccc1F)c1nc(C2CN(CCc3nc4ccccc4[nH]3)C2)sc1Cl` [Example 209], for which the half-maximal inhibitory concentration (IC50) stood at 0.379 µM.

Turning to `O=C(NCc1ncccc1F)c1nc(C2(O)CN(CCc3nc4ccccc4[nH]3)C2)sc1Cl` [Example 211], the IC50 stood at 0.747 µM.

Turning to `Cn1nc(CNCCc2nc3ccccc3[nH]2)cc1C(=O)NCc1ncccc1F` [Example 220], the IC50 stood at 0.29 µM.

Regarding `COc1cccc2[nH]c(CCNCCc3nc(C(=O)NCc4ncccc4F)co3)nc12` [Example 227], the concentration for half-maximal inhibition (IC50) is 0.13 µM.

On to `CC(C)(Cc1nc(C(=O)NCc2ncccc2F)cs1)NCc1nc2ccccc2[nH]1` [Example 231], for which the IC50 came out at 5.2 µM.

Take `O=C(NCc1ccccn1)c1coc(CCNCCc2nc3c(F)cccc3[nH]2)n1` [Example 236]: the half-maximal inhibitory concentration (IC50) came to 0.15 µM.

In the case of `O=C(NCc1cccnn1)c1coc(C2CN(CCc3nc4ccccc4[nH]3)C2)n1` [Example 244], the IC50 was found to be 0.09 µM.

For the molecule `O=C(NCc1ncccc1F)c1coc(CCNCCc2nc3c(F)ccc(Cl)c3[nH]2)n1` [Example 247], the IC50 worked out at 0.082 µM.

Consider `O=C(NCc1ncccc1F)c1coc(CCNCCc2nc3c(F)ccc(F)c3[nH]2)n1` [Example 251], for which the IC50 amounted to 0.062 µM.

Turning to `O=C(NCc1ncccc1F)c1coc(CCNCc2nc3c(F)cccc3[nH]2)n1` [Example 253], the 50% inhibitory concentration (IC50) was 0.226 µM.

With `O=C(NCc1ncccc1F)c1coc(CCNCCc2nc3c(C(F)(F)F)cccc3[nH]2)n1` [Example 256], the IC50 worked out at 0.081 µM.

In the case of `O=C(NCc1ncccc1F)c1coc(CCNCCc2nc3c(F)c(F)ccc3[nH]2)n1` [Example 257], the IC50 amounted to 0.035 µM.

`O=C(NCc1ccccn1)c1coc(C2CN(CCc3nc4c(F)cccc4[nH]3)C2)n1` [Example 258]: the IC50 was found to be 0.152 µM.

As for `O=C(NCc1ncccc1F)c1coc(C2CN(CCc3nc4c(C(F)(F)F)cccc4[nH]3)C2)n1` [Example 273], the IC50 came out at 0.228 µM.

On to `O=C(NCc1ncccc1F)c1csc(CCNCc2nc3c(F)cccc3[nH]2)n1` [Example 274], for which the IC50 was determined as 0.145 µM.

As to `NC(=O)c1csc(CCNCc2nc3ccccc3[nH]2)n1` [compound 23], the half-inhibitory concentration (IC50) is 15.8 µM.

The record behind these values is patent US10738041B2, “Ferroportin inhibitors” (Vifor (International) AG, priority 2015, dated 2020).
